Measured values from patent US11730720B2, “ALK5 inhibitors” (THERAVANCE BIOPHARMA R&D IP, LLC, priority 2018, dated 2023).

Columns and labels:
[1] = test system: TGF-β-stimulated SMAD3 phosphorylation in BEAS-2B cells; assay: Cellular ALK5 potency assay, inhibition of TGF-β stimulated pSMAD3 formation in BEAS-2B cells; assay type: cell-based; settings: Homo sapiens, inhibition of TGF-β (10 ng/mL) stimulated pSMAD3 formation, 1 hour compound incubation, read-out: BEAS2B pIC50 (converted)
Method in brief: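 Phospho-SMAD3 was quantified by AlphaLISA in lysates of human lung epithelial BEAS-2B cells. Compound was added 1 h (37 °C, HEPES/BSA-supplemented HBSS) before a 30 min challenge with 10 ng/mL TGF-β. Values are pIC50 relative to stimulated cells without compound.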

[2] = molecular target: T1, recombinant human ALK5 (TGF-βR1) protein (Homo sapiens, UniProt P36897); assay: Biochemical ALK5 (TGF-βR1) assay to measure pKi (LANCE Ultra ULight kinase assay); settings: apparent pKi, converted from pIC50 using the Cheng-Prusoff equation
T1 construct: purchased Life Technologies PR9075A
T1 sequence (P36897 34-503): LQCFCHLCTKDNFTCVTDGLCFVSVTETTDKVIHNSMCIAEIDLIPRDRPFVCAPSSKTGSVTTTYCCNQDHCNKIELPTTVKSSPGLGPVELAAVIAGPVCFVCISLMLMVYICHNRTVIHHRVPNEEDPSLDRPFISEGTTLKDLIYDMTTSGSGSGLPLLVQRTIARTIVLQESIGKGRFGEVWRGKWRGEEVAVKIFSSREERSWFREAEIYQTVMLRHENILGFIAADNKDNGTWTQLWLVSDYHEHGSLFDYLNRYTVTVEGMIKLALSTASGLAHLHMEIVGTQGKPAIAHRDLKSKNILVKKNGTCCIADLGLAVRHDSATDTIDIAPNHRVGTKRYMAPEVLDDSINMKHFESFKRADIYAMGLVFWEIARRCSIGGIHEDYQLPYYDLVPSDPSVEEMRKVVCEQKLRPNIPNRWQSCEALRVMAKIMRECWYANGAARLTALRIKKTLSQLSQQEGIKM
Method in brief: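 TR-FRET kinase format: compound dose range 10 μM–25 pM equilibrated 60 min with human ALK5 and ULight-labelled topoisomerase 2α peptide in HEPES/MgCl2 buffer pH 7.5 with DTT. Reaction started with ATP (125 μM stock, 5× final), 60 min at 37° C, stopped with EDTA/Eu-anti-phospho antibody; pKi derived from pIC50 via Cheng-Prusoff.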

Compound | Ki [2] [nM] | IC50 [1] [nM]
O=C(O)[C@H]1CN(c2cnc3ccc(-c4nc[nH]c4-c4cc(Cl)ccc4F)nc3c2)CCN1 [Compound 2-28, (2R)-4-[6-[5-(5-chloro-2-fluoro-phenyl)-1H-imidazol-4-yl]-1,5-naphthyridin-3-yl]piperazine-2-carboxylic acid] | 0.398 to 3.16 | 200 to 1260
Cc1nn2c(c1-c1cnc3ccc(-c4c[nH]nc4-c4cc(Cl)ccc4F)nc3c1)NCCC2 [Compound 1-120, 2-[3-(5-chloro-2-fluoro-phenyl)-1H-pyrazol-4-yl]-7-(2-methyl-4,5,6,7-tetrahydropyrazolo[1,5-a]pyrimidin-3-yl)-1,5-naphthyridine] | 0.398 to 3.16 | 25.1 to 158
Fc1ccc(Cl)cc1-c1n[nH]cc1-c1ccc2ncc(N3CCn4nc(Br)nc4C3)cc2n1 [Compound 1-48, 7-(2-bromo-6,8-dihydro-5H-[1,2,4]triazolo[1,5-a]pyrazin-7-yl)-2-[3-(5-chloro-2-fluoro-phenyl)-1H-pyrazol-4-yl]-1,5-naphthyridine] | 0.398 to 3.16 | ≤ 20
Fc1ccc(Cl)cc1-c1[nH]cnc1-c1ccc2ncc(-c3cnc4n3CCNC4)cc2n1 [Compound 2-24, 2-[5-(5-chloro-2-fluoro-phenyl)-1H-imidazol-4-yl]-7-(5,6,7,8-tetrahydroimidazo[1,2-a]pyrazin-3-yl)-1,5-naphthyridine] | 0.0398 to 0.316 | 25.1 to 158
CN1CCN(c2ccc(Nc3cnc4ccc(-c5c[nH]nc5-c5cc(Cl)ccc5F)nc4c3)nc2)CC1 [Compound 1-29, 6-(3-(5-chloro-2-fluorophenyl)-1H-pyrazol-4-yl)-N-(5-(4-methylpiperazin-1-yl)pyridin-2-yl)-1,5-naphthyridin-3-amine] | 0.0398 to 0.316 | 25.1 to 158
Fc1ccc(Cl)cc1-c1n[nH]cc1-c1ccc2ncc(N3CC4CNC4C3)cc2n1 (stereo not drawn) [Compound 1-64, 2-[3-(5-chloro-2-fluoro-phenyl)-1H-pyrazol-4-yl]-7-(3,6-diazabicyclo[3.2.0]heptan-3-yl)-1,5-naphthyridine] | 0.0398 to 0.316 | ≤ 20
Fc1ccc(Cl)cc1-c1n[nH]cc1-c1ccc2ncc(-c3nnn4c3CNCC4)cc2n1 [Compound 1-109, 2-[3-(5-chloro-2-fluoro-phenyl)-1H-pyrazol-4-yl]-7-(4,5,6,7-tetrahydrotriazolo[1,5-a]pyrazin-3-yl)-1,5-naphthyridine] | 0.0398 to 0.316 | 25.1 to 158
COC(=O)[C@H]1CN(c2cnc3ccc(-c4c[nH]nc4-c4cc(Cl)ccc4F)nc3c2)CCN1C [Compound 1-65, methyl (2R)-4-[6-[3-(5-chloro-2-fluoro-phenyl)-1H-pyrazol-4-yl]-1,5-naphthyridin-3-yl]-1-methyl-piperazine-2-carboxylate] | 0.398 to 3.16 | 25.1 to 158
COC(=O)c1cnc2ccc(-c3c(-c4cc(Cl)ccc4F)nnn3Cc3ccccc3)nc2c1 [Compound 4-2, methyl 6-[3-benzyl-5-(5-chloro-2-fluoro-phenyl)triazol-4-yl]-1,5-naphthyridine-3-carboxylate] | 3.98 to 31.6 | 200 to 1260
Fc1ccc(Cl)cc1-c1n[nH]cc1-c1ccc2ncc(N3CCC(N4CCCCC4)C3)cc2n1 (racemic) [Compound 1-39, 2-[3-(5-chloro-2-fluoro-phenyl)-1H-pyrazol-4-yl]-7-[rac-(3R)-3-(1-piperidyl)pyrrolidin-1-yl]-1,5-naphthyridine] | 0.0398 to 0.316 | ≤ 20
COC(=O)c1coc(-c2cnc3ccc(-c4c[nH]nc4-c4cc(Cl)ccc4F)nc3c2)n1 [Compound 1-104, methyl 2-[6-[3-(5-chloro-2-fluoro-phenyl)-1H-pyrazol-4-yl]-1,5-naphthyridin-3-yl]oxazole-4-carboxylate] | 0.398 to 3.16 | 25.1 to 158
Fc1ccc(Cl)cc1-c1n[nH]cc1-c1ccc2ncc(-c3cnn(CC4CNC4)c3)cc2n1 [Compound 1-88, 7-[1-(azetidin-3-ylmethyl)pyrazol-4-yl]-2-[3-(5-chloro-2-fluoro-phenyl)-1H-pyrazol-4-yl]-1,5-naphthyridine] | 0.0398 to 0.316 | 25.1 to 158
Fc1ccc(Cl)cc1-c1n[nH]cc1-c1ccc2ncc(-c3cn4c(n3)CNCC4)cc2n1 [Compound 1-116, 2-[3-(5-chloro-2-fluoro-phenyl)-1H-pyrazol-4-yl]-7-(5,6,7,8-tetrahydroimidazo[1,2-a]pyrazin-2-yl)-1,5-naphthyridine] | 0.0398 to 0.316 | 25.1 to 158
NC1CCC(c2cnc3ccc(-c4c[nH]nc4-c4cc(Cl)ccc4F)nc3c2)CC1 (stereo not drawn) [Compound 1-98, 4-(6-(3-(5-chloro-2-fluorophenyl)-1H-pyrazol-4-yl)-1,5-naphthyridin-3-yl)cyclohexan-1-amine] | 3.98 to 31.6 | 200 to 1260
Fc1ccc(Cl)cc1-c1[nH]nnc1-c1ccc2ncc(-c3c[nH]nc3C(F)(F)F)cc2n1 [Compound 5-2, 2-(5-(5-chloro-2-fluorophenyl)-1H-1,2,3-triazol-4-yl)-7-(3-(trifluoromethyl)-1H-pyrazol-4-yl)-1,5-naphthyridine] | 3.98 to 31.6 | 25.1 to 158

The next lines start with results.

Ki [2] [nM] | Compound | IC50 [1] [nM]
0.398 to 3.16 | CNC1CCN(c2cnc3ccc(-c4c[nH]nc4-c4ccc(F)c(F)c4)nc3c2)CC1 [Compound 8-6, 1-[6-[3-(3,4-difluorophenyl)-1H-pyrazol-4-yl]-1,5-naphthyridin-3-yl]-N-methyl-piperidin-4-amine] | 25.1 to 158
0.398 to 3.16 | CC(C)N1CCN(CCNc2cnc3ccc(-c4nc[nH]c4-c4cccc(Cl)c4)cc3c2)CC1 [Compound 24-2, 6-(5-(3-chlorophenyl)-1H-imidazol-4-yl)-N-(2-(4-isopropylpiperazin-1-yl)ethyl)quinolin-3-amine] | 25.1 to 158
0.398 to 3.16 | COCc1cccc(-c2n[nH]cc2-c2ccc3ncc(N4CCC(N)C4)cc3n2)c1 (stereo not drawn) [Compound 14-6, 1-[6-[3-[3-(methoxymethyl)phenyl]-1H-pyrazol-4-yl]-1,5-naphthyridin-3-yl]pyrrolidin-3-amine] | 25.1 to 158
0.398 to 3.16 | Fc1cc(F)c(-c2n[nH]cc2-c2ccc3ncc(NC[C@@H]4CCCCN4)cc3n2)cc1Cl [Compound 6-12, 6-[3-(5-chloro-2,4-difluoro-phenyl)-1H-pyrazol-4-yl]-N-[[(2S)-2-piperidyl]methyl]-1,5-naphthyridin-3-amine] | 25.1 to 158
0.0398 to 0.316 | CNCCn1cc(-c2cnc3ccc(-c4nc[nH]c4-c4cc(Cl)c(F)cc4F)cc3c2)cn1 [Compound 22-2, 2-(4-(6-(5-(5-chloro-2,4-difluorophenyl)-1H-imidazol-4-yl)quinolin-3-yl)-1H-pyrazol-1-yl)-N-methylethan-1-amine] | 25.1 to 158
0.0398 to 0.316 | Fc1cc(F)c(-c2n[nH]cc2-c2ccc3ncc(-c4[nH]nc5c4CCN5)cc3n2)cc1Cl [Compound 6-59, 2-[3-(5-chloro-2,4-difluoro-phenyl)-1H-pyrazol-4-yl]-7-(2,4,5,6-tetrahydropyrrolo[2,3-c]pyrazol-3-yl)-1,5-naphthyridine] | 25.1 to 158
0.0398 to 0.316 | Fc1ccc(Cl)cc1-c1[nH]nnc1-c1ccc2ncc(-c3cn[nH]c3)cc2c1 [Compound 18-2, 6-[5-(5-chloro-2-fluoro-phenyl)-1H-triazol-4-yl]-3-(1H-pyrazol-4-yl)quinoline] | ≤ 20
0.0398 to 0.316 | CNCCn1cc(-c2cnc3ccc(-c4c(-c5cc(Cl)ccc5F)nnn4Cc4cccnc4)cc3c2)cn1 [Compound 20-1, 2-(4-(6-(4-(5-chloro-2-fluorophenyl)-1-(pyridin-3-ylmethyl)-1H-1,2,3-triazol-5-yl)quinolin-3-yl)-1H-pyrazol-1-yl)-N-methylethan-1-amine] | 25.1 to 158
≤ 0.0316 | CNCCn1cc(-c2cnc3ccc(-c4c[nH]nc4-c4cc(Cl)c(F)cc4F)nc3c2)nn1 [Compound 6-67, 2-[4-[6-[3-(5-chloro-2,4-difluoro-phenyl)-1H-pyrazol-4-yl]-1,5-naphthyridin-3-yl]triazol-1-yl]-N-methyl-ethanamine] | 25.1 to 158
0.0398 to 0.316 | Fc1cc(F)c(-c2n[nH]cc2-c2ccc3ncc(-c4ncn5c4CNCC5)cc3n2)cc1Cl [Compound 6-49, 2-[3-(5-chloro-2,4-difluoro-phenyl)-1H-pyrazol-4-yl]-7-(5,6,7,8-tetrahydroimidazo[1,5-a]pyrazin-1-yl)-1,5-naphthyridine] | 25.1 to 158
0.398 to 3.16 | COC(=O)CC1CN(CCNc2cnc3ccc(-c4c[nH]nc4-c4cc(Cl)c(F)cc4F)nc3c2)CCN1 (stereo not drawn) [Compound 6-75, methyl 2-[4-[2-[[6-[3-(5-chloro-2,4-difluoro-phenyl)-1H-pyrazol-4-yl]-1,5-naphthyridin-3-yl]amino]ethyl]piperazin-2-yl]acetate] | 25.1 to 158
0.398 to 3.16 | Fc1cc(F)c(-c2n[nH]cc2-c2ccc3ncc(-c4cnc5n4CCNC5)cc3n2)cc1Cl [Compound 6-48, 2-[3-(5-chloro-2,4-difluoro-phenyl)-1H-pyrazol-4-yl]-7-(5,6,7,8-tetrahydroimidazo[1,2-a]pyrazin-3-yl)-1,5-naphthyridine] | 25.1 to 158
